In patent publication US20130085133A1, “ANTI-VIRAL TREATMENT AND ASSAY TO SCREENFOR ANTI-VIRAL AGENT” (Sourthern Research Institute Office of Commercialization …, priority 2010, published 2013):
In brackets after ≈: the same amount, converted by molar mass.

What was measured:
[1] = tested on: respiratory syncytial virus (RSV) strain Long; test: microbe, parasite or virus in culture; details: human respiratory syncytial virus, HEp-2, 144 h
Protocol: The assay measures RSV virus-induced CPE in HEp-2 cells using cell viability as the end point.
Two vials of RSV (strain Long) containing 1×10^7 pfu/mL was thawed using an Eppendorf thermomixer for 13 min at 15° C., with shaking at 350 rpm. […] The cells were incubated for 18-20 h at 37° C., 5% CO2, 90% relative humidity. The medium was aspirated and the cells washed with 10 mL PBS without Mg^2+ or Ca^2+. Cells were harvested from flasks using 0.25% trypsin-EDTA. The cells were resuspended in a freezing medium of 95% fetal calf serum and 5% DMSO to a final cell density of 2×10^6 cells/mL. One mL aliquots of this virus infected cell suspension were dispensed to cryovials and cells were rate frozen to −80° C. Frozen infected cells were then transferred to −150° C. for long term storage.
(§1) Test compounds were evaluated by measuring their antiviral activity, cell toxicity, and selectivity. Test compounds were serially diluted in a plate to plate matrix or “stacked plate” matrix. All 320 compounds in a source plate were diluted together resulting in a 10 point dose response dilution series. It was visualized as a serial dilution series proceeding vertically through a stack of plates with the high dose plate on top and the low dose plate on the bottom.
Cells were harvested and resuspended to 80,000 cells per ml in Complete DMEM/F12.
Cells were thawed in a room temperature water bath with gentle agitation. The tube was inverted 5-10. Cells were diluted to 80,000 cells per ml by adding the contents of the vial to 24 ml of cold (4° C.) media.
Twenty five ul of uninfected HEp-2 cells were plated in the cell control wells. Frozen infected cells were combined with uninfected HEp-2 cells at a 1:100 ratio. Twenty five ul of the cell mixture was added to the virus control and compound wells. All cell plating was conducted using a Matrix WellMate and cells were maintained at room temperature with stirring during the plating process. The assay plates were incubated for six days at 37° C., 5% CO2 and 90% relative humidity.
(§2) Following the six day incubation period, the assay plates were equilibrated to room temperature for 30 min and an equal volume (30 μL) of Cell Titer-Glo reagent (Promega Inc.) was added to each well using a WellMate (Matrix, Hudson, N.H.) and plates were incubated for an additional 10 min at room temperature. At the end of the incubation, luminescence was measured using a Perkin Elmer Envision™ multi-label reader (PerkinElmer, Wellesley, Mass.) with an integration time of 0.1 s.
(§3) Data was analyzed using ActivityBase software (IDBS, Inc, Guilford, UK). thirty two control wells containing cells only and twenty four wells containing cells and virus were included on each assay plate and used to calculate Z′ value for each plate and to normalize the data on a per plate basis. […] Eight ribavirin positive control wells were included on each plate for quality control purposes, but were not used in Z′ calculations. […] In the toxicity assay, results are described as percent viability and the calculation is the same.
(§4) An EC50 (for CPE inhibition) and IC50 (for cell viability) were calculated for each substance using the 4 parameter Levenburg-Marquardt algorithm with parameter A locked at 0 and parameter B locked at 100. Standard deviation, normalized chi2 and hill slope were used to evaluate the curves. Values were not extrapolated beyond the tested range of concentrations.

[2] = cytotoxicity assay (percent viability of HEp-2 cells, Cell Titer-Glo); details: human, HEp-2 cells
Protocol: as §1, §2, §3, §4

| EC50 [1] [mg/L] | SMILES | CC50 at 6 days [2] [mg/L] |
| --- | --- | --- |
| 18.8 (≈ 59.1 µM) | Cc1ccc2nc(-c3ccccc3)c(CN3CCCC3)c(O)c2c1 [AB00293683] | > 25 |
| 10.8 (≈ 32.6 µM) | Fc1cccc(COc2ccc(C(=S)N3CCOCC3)cc2)c1 [AB00293926] | > 25 |
| 16.4 (≈ 80.1 µM) | NC(=O)CC1Nc2ccccc2NC1=O (stereo not drawn) [AB00294484] | > 25 |
| 22.5 (≈ 58.7 µM) | O=C(Nc1ccc2oc(-c3ccccc3Br)nc2c1)c1ccco1 [AB00294890] | > 25 |
| 18.9 (≈ 66.8 µM) | CCn1c(COc2ccccc2OC)nc2ccccc21 [AB00296345] | > 25 |
| 12.9 (≈ 36.3 µM) | COc1cc([N+](=O)[O-])ccc1NC(=O)C1CC(Cl)=CCC1C(=O)O (stereo not drawn) [AB00296680] | > 25 |
| 10.9 (≈ 42.4 µM) | Cc1ccc(-c2csc3nc[nH]c(=O)c23)cc1C [AB00297372] | > 25 |
| 14.1 (≈ 49.7 µM) | Cc1ccc(C(=O)Nc2ccc(OC(C)C)cc2)cc1C [AB00297482] | > 25 |
| 19.2 (≈ 39.1 µM) | Cc1ccc(S(=O)(=O)NC2CCCC(C(=O)Oc3ccc4c(c3)oc(=O)c3ccccc34)C2)cc1 (stereo not drawn) [AB00297971] | > 25 |
| 11 (≈ 22.1 µM) | Cc1ccc(S(=O)(=O)NC(C(=O)Oc2ccc3c(c2)oc(=O)c2ccccc23)c2ccccc2)cc1 (stereo not drawn) [AB00297982] | > 25 |
| 13.5 (≈ 47.4 µM) | CCC(Oc1ccc(-c2ccc(C)cc2)cc1)C(=O)OC (stereo not drawn) [AB00298660] | > 25 |
| 12.1 (≈ 29.9 µM) | COc1ccc(C(=O)N2CCC(C(=O)Nc3cccc(C(F)(F)F)c3)CC2)cc1 [AB00298665] | > 25 |
| 20.4 (≈ 53.2 µM) | O=C(C1CCN(S(=O)(=O)c2ccccc2)CC1)N1CCc2ccccc2C1 [AB00298862] | > 25 |
| 21.7 (≈ 85.6 µM) | COC(=O)Cc1ccc2c3ccccc3n(C)c2c1 [AB00299031] | > 25 |
| 15.8 (≈ 33.5 µM) | CC1=CC(C)(C)Nc2ccc(OC(=O)C(Cc3ccccc3)N3C(=O)C4CCCCC4C3=O)cc21 (stereo not drawn) [AB00299290] | > 25 |
| 10.4 (≈ 30.3 µM) | Cc1nc(Nc2ccccc2Cl)sc1C(=O)Nc1ccccc1 [AB00299380] | > 25 |
| 12.3 (≈ 31.2 µM) | O=C(Nc1ccc(F)c(Cl)c1)C1CCN(C(=O)c2ccc(Cl)cc2)CC1 [AB00299386] | > 25 |
| 18.1 (≈ 43.3 µM) | COc1ccc(C(=O)N2CCC(C(=O)Nc3cccc(Br)c3)CC2)cc1 [AB00299547] | > 25 |
| 22.4 (≈ 78.9 µM) | C=CCNC(=O)COc1ccc(Br)cc1C [AB00299924] | > 25 |
| 22.6 (≈ 50.9 µM) | O=C(O)c1ccc(NC(=S)NC(=O)c2ccc(-c3ccc(Br)cc3)o2)cc1 [AB00301183] | > 25 |
| 21.1 (≈ 45.5 µM) | COc1ccccc1C(=O)N(CCCCN1C(=O)c2ccccc2C1=O)c1ccc(Cl)cc1 [AB00301352] | > 25 |
| 17.8 (≈ 37.2 µM) | O=C1c2ccccc2C(=O)N1CCCCN(C(=O)c1ccccc1[N+](=O)[O-])c1ccc(Cl)cc1 [AB00301378] | > 25 |
| 15.1 (≈ 35.5 µM) | Cc1ccc(N(CCCCN2C(=O)c3ccccc3C2=O)C(=O)c2cccc(C)c2)cc1 [AB00302020] | > 25 |
| 15.3 (≈ 37.4 µM) | COCCNC(=O)Nc1ccc2nc(-c3cccs3)c(-c3cccs3)nc2c1 [AB00302454] | > 25 |
| 20.3 (≈ 58.2 µM) | COC(=O)c1ccc(NC(=O)c2ccc(C)c(Br)c2)cc1 [AB00302921] | > 25 |
| 10.7 (≈ 32.1 µM) | O=S1(=O)N=C(Nc2ccc3c4c(cccc24)CC3)c2ccccc21 [AB00304418] | > 25 |
| 13.2 (≈ 43.5 µM) | Cc1sc(NC(=O)CCc2ccccc2)c(C(=O)O)c1C [AB00304690] | > 25 |

| EC50 [1] [mg/L] | SMILES | CC50 at 6 days [2] [mg/L] |
| --- | --- | --- |
| 17.1 (≈ 60.3 µM) | Cc1cccc(C(=O)Nc2cc(C(C)C)c(O)cc2C)c1 [AB00305611] | > 25 |
| 17.3 (≈ 46.5 µM) | c1ccc(-c2cc3c(N4CCN(c5ccccc5)CC4)ncnc3s2)cc1 [AB00306917] | > 25 |
| 14.3 (≈ 30.9 µM) | O=C1c2ccccc2C(=O)N1CCc1nc2ccccc2c(=O)n1-c1cc(Cl)ccc1Cl [AB00307079] | > 25 |
| 21.1 (≈ 68.3 µM) | COc1ccc(CN2C(=O)CC(Cc3ccccc3)C2=O)cc1 (stereo not drawn) [AB00307412] | > 25 |
| 20.3 (≈ 59.6 µM) | Cn1c(SCCc2ccccc2)nnc1-c1cccc([N+](=O)[O-])c1 [AB00309238] | > 25 |
| 16.3 (≈ 61.1 µM) | COc1ccc2cc(Br)ccc2c1CO [AB00309550] | > 25 |
| 14.3 (≈ 38.6 µM) | CCOc1ccccc1-c1cc(C(=O)O)c2cc(Br)ccc2n1 [AB00309817] | > 25 |
| 12.3 (≈ 27.6 µM) | O=C(c1ccc(Cl)cc1Cl)N1CCCN(C(=O)c2ccc(Cl)cc2Cl)CC1 [AB00309842] | > 25 |
| 6.84 (≈ 18.2 µM) | COC(=O)c1c(-c2ccc(C)c(C)c2)csc1NC(=O)CCCC(=O)O [AB00309859] | > 25 |
| 10.4 (≈ 32.5 µM) | COc1ccc(C(=O)NCCc2cccc(Cl)c2)c(OC)c1 [AB00310156] | > 25 |
| 24.5 (≈ 56.8 µM) | COC(=O)c1c(-c2ccc(C)cc2)csc1NC(=O)c1ccccc1Br [AB00310224] | > 25 |
| 14.1 (≈ 35.6 µM) | O=C(c1ccccc1C(=O)N1CCc2ccccc2C1)N1CCc2ccccc2C1 [AB00310729] | > 25 |
| 15 (≈ 50.5 µM) | CCC(C)N(C(=O)c1cc(Cl)ccc1OC)C(C)CC (stereo not drawn) [AB00310767] | > 25 |
| 23.6 (≈ 95.6 µM) | CCC(=O)Nc1ccc(-c2csc(N)n2)cc1 [AB00310808] | > 25 |
| 19.6 (≈ 70.5 µM) | O=C(Nc1ccccc1Br)c1cnccn1 [AB00310846] | > 25 |
| 1.15 (≈ 2.75 µM) | COC(=O)c1c(-c2ccccc2)csc1NC(=O)c1c(-c2ccccc2)noc1C [AB00310910] | > 25 |
| 22.7 (≈ 80.9 µM) | Nc1ccc2oc(-c3cc(F)c(F)cc3Cl)nc2c1 [AB00311411] | > 25 |
| 18 (≈ 61.5 µM) | CCc1c(C)sc(NC(=O)c2ccc(C)o2)c1C(N)=O [AB00313012] | > 25 |
| 19.5 (≈ 52.1 µM) | Cc1cccc(C)c1NC(=O)c1cccc(C(=O)Nc2c(C)cccc2C)n1 [AB00313091] | > 25 |
| 22.2 (≈ 57.1 µM) | COc1ccc(-c2cc(C(=O)O)c3cc(Br)ccc3n2)c(OC)c1 [AB00313218] | > 25 |
| 2.72 (≈ 7.77 µM) | NC(=O)c1c(NC(=O)Nc2cccc(Cl)c2)sc2c1CCCC2 [AB00313952] | > 25 |
| 23.8 (≈ 68.8 µM) | CC(Oc1ccc(Cl)cc1Cl)C(=O)Nc1ccc(F)c(F)c1 (stereo not drawn) [AB00314248] | > 25 |
| 23.5 (≈ 117 µM) | COC(=O)Nc1ccc2ccccc2c1 [AB00314279] | > 25 |
| 12 (≈ 29.9 µM) | C=CCNc1cc(N2CCN(C(=O)c3ccc(Cl)cc3)CC2)ccc1[N+](=O)[O-] [AB00315446] | > 25 |
| 21.1 (≈ 71.3 µM) | Cc1cc(C)cc(OCC(=O)N2CCc3ccccc3C2)c1 [AB00315731] | > 25 |
| 15.4 (≈ 40 µM) | O=C(CCN1C(=O)c2cccc3cccc(c23)C1=O)N1CCc2ccccc2C1 [AB00315918] | > 25 |
| 24.3 (≈ 97.8 µM) | Cc1cccc(NCc2cc(Cl)ccc2O)n1 [AB00317095] | > 25 |
